In data set [1] the target is CYP3A4 (Homo sapiens, UniProt P08684). Kind of data set: Cytochrome P450 (CYP450) Inhibition Assay, CYP3A4 (Vivid fluorescence, BOMCC substrate). As to conditions: human, P450 Baculosomes (recombinant CYP3A4), probe BOMCC (Vivid substrate).
For data set [2], the system named is sodium channel. Kind of data set: Guanidine influx assay (14C-guanidine radiotracer flux, in vitro). As to conditions: guanidine influx assay using a known cell line that expresses a sodium channel. The class given is cell-based, human or rat. The gist of the method: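 Cells stably expressing human or rat sodium channels (~100,000/well, 20–24 h) were exposed in low-sodium choline buffer to test agent plus aconitine activator and 14C-guanidine at ambient temperature. Intracellular 14C-guanidine was counted by scintillation; IC50 fitted by 4-parameter logistic over half-dilutions around 1 μM.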

This note sets out measurements from patent publication US8263606B2 (Xenon Pharmaceuticals Inc., priority 2008, dated 2012).

Bounds are passed on as bounds.

Chain of CYP3A4 (P08684 whole entry): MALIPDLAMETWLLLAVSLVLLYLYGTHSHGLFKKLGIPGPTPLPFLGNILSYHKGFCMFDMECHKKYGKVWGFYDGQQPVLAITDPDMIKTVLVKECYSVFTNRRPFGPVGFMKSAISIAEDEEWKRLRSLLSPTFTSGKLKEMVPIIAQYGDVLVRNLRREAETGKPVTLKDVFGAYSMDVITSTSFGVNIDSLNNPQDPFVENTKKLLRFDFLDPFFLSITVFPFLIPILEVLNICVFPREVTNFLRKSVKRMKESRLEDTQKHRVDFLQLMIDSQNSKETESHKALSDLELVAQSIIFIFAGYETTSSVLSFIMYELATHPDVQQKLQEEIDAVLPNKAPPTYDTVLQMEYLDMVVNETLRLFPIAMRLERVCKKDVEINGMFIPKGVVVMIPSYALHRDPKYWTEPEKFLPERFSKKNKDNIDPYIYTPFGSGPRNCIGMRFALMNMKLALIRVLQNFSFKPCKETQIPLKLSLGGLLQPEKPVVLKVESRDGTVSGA

For the molecule `O=C(NCc1cccs1)c1ccc(CN2C(=O)C3(COc4cc5c(cc43)CCO5)c3ccccc32)cc1` (stereo not drawn) [Example 12.38, 4-[(2′-oxo-5,6-dihydrospiro[benzo[1,2-b:5,4-b′]difuran-3,3′-indol]-1′(2′H)-yl)methyl]-N-(thiophen-2-ylmethyl)benzamide], the melting point was in the range of 167 to 168 °C. Besides, the inhibition at 10 µM in data set [1] was above 50%. In data set [2], the IC50 lay within 100 to 1000 nM.
The corresponding values for `CCNC(=O)c1ccc(CN2C(=O)C3(COc4cc5c(cc43)CCO5)c3ccccc32)cc1` (stereo not drawn) [Example 12.39, N-ethyl-4-[(2′-oxo-5,6-dihydrospiro[benzo[1,2-b:5,4-b′]difuran-3,3′-indol]-1′(2′H)-yl)methyl]benzamide] are 190 to 191 °C, above 50% and 100 to 1000 nM.
The matching figures for `COCCNC(=O)c1ccc(CN2C(=O)C3(COc4cc5c(cc43)CCO5)c3ccccc32)cc1` (stereo not drawn) [Example 12.40, N-(2-methoxyethyl)-4-[(2′-oxo-5,6-dihydrospiro[benzo[1,2-b:5,4-b′]difuran-3,3′-indol]-1′(2′H)-yl)methyl]benzamide]: 182 to 183 °C, below 50% and 100 to 1000 nM.
The matching figures for `CCOCCNC(=O)c1ccc(CN2C(=O)C3(COc4cc5c(cc43)CCO5)c3ccccc32)cc1` (stereo not drawn) [Example 12.41, N-(2-ethoxyethyl)-4-[(2′-oxo-5,6-dihydrospiro[benzo[1,2-b:5,4-b′]difuran-3,3′-indol]-1′(2′H)-yl)methyl]benzamide]: 84 to 85 °C, above 50% and 100 to 1000 nM.
`O=C(NC1CCC1)c1ccc(CN2C(=O)C3(COc4cc5c(cc43)CCO5)c3ccccc32)cc1` (stereo not drawn) [Example 12.42, N-cyclobutyl-4-[(2-oxo-5,6-dihydrospiro[benzo[1,2-b:5,4-b′]difuran-3,3-indol]-1(2H)-yl)methyl]benzamide]: the melting point is above 250 °C. In addition, the inhibition at 10 µM in data set [1] is above 50%. Further, the IC50 in data set [2] lay within 100 to 1000 nM.
The matching figures for `O=C(Nc1nccs1)c1ccc(CN2C(=O)C3(COc4cc5c(cc43)CCO5)c3ccccc32)cc1` (stereo not drawn) [Example 12.43, 4-[(2′-oxo-5,6-dihydrospiro[benzo[1,2-b:5,4-b′]difuran-3,3′-indol]-1′(2′H)-yl)methyl]-N-1,3-thiazol-2-ylbenzamide]: above 250 °C, below 50% and 100 to 1000 nM.
The matching figures for `Cc1c(F)cccc1NC(=O)c1ccc(CN2C(=O)C3(COc4cc5c(cc43)CCO5)c3ccccc32)cc1` (stereo not drawn) [Example 12.44, N-(3-fluoro-2-methylphenyl)-4-[(2′-oxo-5,6-dihydrospiro[benzo[1,2-b:5,4-b′]difuran-3,3′-indol]-1′(2′H)-yl)methyl]benzamide]: 143 to 144 °C, below 50% and 1000 to 10000 nM.
For the molecule `CCC(CC)CNC(=O)c1ccc(CN2C(=O)C3(COc4cc5c(cc43)CCO5)c3ccccc32)cc1` (stereo not drawn) [Example 12.45, N-(2-ethylbutyl)-4-[(2′-oxo-5,6-dihydrospiro[benzo[1,2-b:5,4-b′]difuran-3,3′-indol]-1′(2′H)-yl)methyl]benzamide], the melting point fell in the range of 211 to 213 °C. In addition, the inhibition at 10 µM in data set [1] is below 50%. For the same molecule, the IC50 in data set [2] lay within 1000 to 10000 nM.
The matching figures for `CC(C)(C)CCNC(=O)CN1C(=O)C2(COc3cc4c(cc32)CCO4)c2ccccc21` (stereo not drawn) [Example 12.49, N-(3,3-dimethylbutyl)-2-(2′-oxo-5,6-dihydrospiro[benzo[1,2-b:5,4-b′]difuran-3,3′-indol]-1′(2′H)-yl)acetamide]: 161 to 163 °C, above 50% and 100 to 1000 nM.
`CC(C)OCCCNC(=O)CN1C(=O)C2(COc3cc4c(cc32)CCO4)c2ccccc21` (stereo not drawn) [Example 12.50, N-[3-(1-methylethoxy)propyl]-2-(2′-oxo-5,6-dihydrospiro[benzo[1,2-b:5,4-b′]difuran-3,3′-indol]-1′(2′H)-yl)acetamide] showed a melting point of 149 to 151 °C. For the same molecule, the inhibition at 10 µM in data set [1] is above 50%. Also, in data set [2], the IC50 lay in the range of 100 to 1000 nM.
The matching figures for `CCCNC(=O)CN1C(=O)C2(COc3cc4c(cc32)CCO4)c2ccccc21` (stereo not drawn) [Example 12.51, 2-(2′-oxo-5,6-dihydrospiro[benzo[1,2-b:5,4-b′]difuran-3,3′-indol]-1′(2′H)-yl)-N-propylacetamide]: 207 to 209 °C, above 50% and 100 to 1000 nM.
Turning to `CN(C(=O)CN1C(=O)C2(COc3cc4c(cc32)CCO4)c2ccccc21)c1ccccc1` (stereo not drawn) [Example 12.52, N-methyl-2-(2′-oxo-5,6-dihydrospiro[benzo[1,2-b:5,4-b′]difuran-3,3′-indol]-1′(2′H)-yl)-N-phenylacetamide], the melting point was 234 to 238 °C. The inhibition at 10 µM in data set [1] was above 50%. Further, the IC50 in data set [2] lay in the range of 100 to 1000 nM.
The corresponding values for `Cc1ccc(C)c(NC(=O)CN2C(=O)C3(COc4cc5c(cc43)CCO5)c3ccccc32)c1` (stereo not drawn) [Example 12.53, N-(2,5-dimethylphenyl)-2-(2′-oxo-5,6-dihydrospiro[benzo[1,2-b:5,4-b′]difuran-3,3′-indol]-1′(2′H)-yl)acetamide] are 250 to 252 °C, below 50% and 1000 to 10000 nM.
The matching figures for `Cc1ccc(NC(=O)CN2C(=O)C3(COc4cc5c(cc43)CCO5)c3ccccc32)c(C)c1` (stereo not drawn) [Example 12.54, N-(2,4-dimethylphenyl)-2-(2′-oxo-5,6-dihydrospiro[benzo[1,2-b:5,4-b′]difuran-3,3′-indol]-1′(2′H)-yl)acetamide]: 277 to 279 °C, above 50% and 1000 to 10000 nM.
The corresponding values for `Cc1cccc(NC(=O)CN2C(=O)C3(COc4cc5c(cc43)CCO5)c3ccccc32)c1C` (stereo not drawn) [Example 12.55, N-(2,3-dimethylphenyl)-2-(2′-oxo-5,6-dihydrospiro[benzo[1,2-b:5,4-b′]difuran-3,3′-indol]-1′(2′H)-yl)acetamide] are 251 to 253 °C, above 50% and 1000 to 10000 nM.
Molecule `Cc1cccc(C)c1NC(=O)CN1C(=O)C2(COc3cc4c(cc32)CCO4)c2ccccc21` (stereo not drawn) [Example 12.56, N-(2,6-dimethylphenyl)-2-(2′-oxo-5,6-dihydrospiro[benzo[1,2-b:5,4-b′]difuran-3,3′-indol]-1′(2′H)-yl)acetamide] showed a melting point of 261 to 262 °C. In addition, in data set [1], the inhibition at 10 µM was above 50%. Besides, the IC50 in data set [2] lay within 1000 to 10000 nM.
The matching figures for `CNC(=O)c1cc(CN2C(=O)C3(COc4cc5c(cc43)OCO5)c3ccccc32)oc1C(F)(F)F` (stereo not drawn) [Example 12.57, N-methyl-5-[(2′-oxospiro[furo[2,3-f][1,3]benzodioxole-7,3′-indol]-1′(2′H)-yl)methyl]-2-(trifluoromethyl)furan-3-carboxamide]: 202 to 203 °C, above 50% and 100 to 1000 nM.
The matching figures for `NC(=O)c1cc(CN2C(=O)C3(COc4cc5c(cc43)OCO5)c3ccccc32)oc1C(F)(F)F` (stereo not drawn) [Example 12.58, 5-[(2′-oxospiro[furo[2,3-f][1,3]benzodioxole-7,3′-indol]-1′(2′H)-yl)methyl]-2-(trifluoromethyl)furan-3-carboxamide]: 172 to 174 °C, above 50% and 1 to 100 nM.
The corresponding values for `CN(C)C(=O)c1cc(CN2C(=O)C3(COc4cc5c(cc43)OCO5)c3ccccc32)oc1C(F)(F)F` (stereo not drawn) [Example 12.59, N,N-dimethyl-5-[(2′-oxospiro[furo[2,3-f][1,3]benzodioxole-7,3′-indol]-1′(2′H)-yl)methyl]-2-(trifluoromethyl)furan-3-carboxamide] are 96 to 98 °C, above 50% and 100 to 1000 nM.
`NC(=O)c1ccc(CN2C(=O)C3(COc4cc5c(cc43)OCCO5)c3ccccc32)cc1` (stereo not drawn) [Example 12.60, 4-[(2′-oxo-2,3-dihydrospiro[furo[2,3-g][1,4]benzodioxine-8,3′-indol]-1′(2′H)-yl)methyl]benzamide] showed a melting point of 236 to 238 °C. For the same molecule, the inhibition at 10 µM in data set [1] was above 50%. Besides, the IC50 in data set [2] lay in the range of 1 to 100 nM.
The matching figures for `NC(=O)c1cccc(CN2C(=O)C3(COc4cc5c(cc43)OCCO5)c3ccccc32)c1` (stereo not drawn) [Example 12.61, 3-[(2′-oxo-2,3-dihydrospiro[furo[2,3-g][1,4]benzodioxine-8,3′-indol]-1′(2′H)-yl)methyl]benzamide]: 130 to 135 °C, above 50% and 100 to 1000 nM.
The matching figures for `CN(C)C(=O)c1cccc(CN2C(=O)C3(COc4cc5c(cc43)OCCO5)c3ccccc32)c1` (stereo not drawn) [Example 12.62, N,N-dimethyl-3-[(2′-oxo-2,3-dihydrospiro[furo[2,3-g][1,4]benzodioxine-8,3′-indol]-1′(2′H)-yl)methyl]benzamide]: 90 to 96 °C, above 50% and 100 to 1000 nM.
The matching figures for `O=C(Nc1ccccc1F)c1ccc(CN2C(=O)C3(COc4cc5c(cc43)OCCO5)c3ccccc32)cc1` (stereo not drawn) [Example 12.65, N-(2-fluorophenyl)-4-[(2′-oxo-2,3-dihydrospiro[furo[2,3-g][1,4]benzodioxine-8,3′-indol]-1′(2′H)-yl)methyl]benzamide]: 245 to 251 °C, below 50% and 100 to 1000 nM.

By melting point is commonly meant the temperature of the solid-liquid transition. What is called inhibition is the relative decrease from the control value, in per cent. One may read the IC50 as the concentration at which inhibition is half-maximal.
